Source: patent publication US20070048252A1, “Conjugates of the hydrophilic polymer and the molecules from boxwood extraction, and pharmaceutical compositions of the conjugates” (Beijingn Jenkem Technology CO., Ltd., priority 2003, published 2007)
“Also recorded” adds a separate entry of the source.

Experiments:
Kunming strain mice = test: Acute toxicity study, single IV or IP injection, 14 days observation; assay type: in vivo
Method: (§1) The conjugate obtained from example 8 was used as the testing reagent in the following study, while native Cyclovirobuxine D was used as positive control. Both samples were dissolved in sodium acetate (pH 5.7) before injection.
Kunming strain mice, 50% male and 50% formale, weighing 19-21 g, were randomly divided into 5 groups in the study. (1) native Cyclovirobuxine D, (2) the conjugate of PEG and Cyclovirobuxine D. The mice were fasted 12 hours before the injections. Each mice was given a single injection, and the volume for both IV and IP injection was based on 0.3 ml/10 g formulation. […] After 14 days, the mice still alive were executed and then analyzed.

[1] = test system: pituitrin-induced myocardial ischemic injury; test: Effect on pituitrin-induced myocardial ischemic injury (routine leads ECG: T wave, cardioverter); assay type: in vivo, SD rats; conditions: for effect on the cardioverter, in words: comparison with the controls groups, P>0.05; for inhibition of the rising of T wave by pituitrin-induced, in words: in 15 sec
Method: as §1
Methods: 50 normal SD rats of each sex, weighting 180-220 g, were randomly divided into five groups: controls, low dose of native Cyclovirobuxine D (0.25 mg/kg); middle dose of native Cyclovirobuxine D (0.5 mg/kg); low dose of the conjugate of Cyclovirobuxine D (0.25 mg/kg); middle dose of the conjugate of Cyclovirobuxine D (0.5 mg/kg). All rats were fasted before experiment for 12 hours, 1 g/kg urethane was administered by abdominal injection for anesthesia of the rats, and were placed in dorsal recumbency. A needle electrode was inserted into extremity subsurface carefully, examination leads ECG, holding 30 min, records the routine leads ECG The drug was given via vein of […] tail for each groups, after 10 min, 1.5 u/kg pituitrin was injected into dorsal veins of tongue, limited in 10 sec, records the routine leads ECG in 15 s, 30 s, 1, 2, 3, 5, 7, 10, 15 min after injected.

[2] = low dose 0.25 mg/kg iv, 1′ after pituitrin
[3] = low dose 0.25 mg/kg iv, 2′ after pituitrin
[4] = low dose 0.25 mg/kg iv, 3′ after pituitrin
[5] = low dose 0.25 mg/kg iv, 5′ after pituitrin
[6] = low dose 0.25 mg/kg iv, 7′ after pituitrin
[7] = low dose 0.25 mg/kg iv, 10′ after pituitrin
[8] = low dose 0.25 mg/kg iv, 15′ after pituitrin
[9] = low dose 0.25 mg/kg iv, 15″ after pituitrin 1.5 u/kg
[10] = low dose 0.25 mg/kg iv, 30″ after pituitrin
[11] = middle dose 0.5 mg/kg iv, 1′ after pituitrin
[12] = middle dose 0.5 mg/kg iv, 2′ after pituitrin
[13] = middle dose 0.5 mg/kg iv, 3′ after pituitrin
[14] = middle dose 0.5 mg/kg iv, 5′ after pituitrin
[15] = middle dose 0.5 mg/kg iv, 7′ after pituitrin
[16] = middle dose 0.5 mg/kg iv, 10′ after pituitrin
[17] = middle dose 0.5 mg/kg iv, 15′ after pituitrin
[18] = middle dose 0.5 mg/kg iv, 15″ after pituitrin 1.5 u/kg
[19] = middle dose 0.5 mg/kg iv, 30″ after pituitrin
[20] = middle dose 0.5 mg/kg iv, time 0

α-methoxy-polyethylene-glycol-ω-glu-glu-gly-Cyclovirobuxine D ester [Example 8]
toxicity compared with native Cyclovirobuxine D, in words (Kunming strain mice; iv and ip administration, from LD50): lower toxicity
effect on the cardioverter, in words ([1]; listed as the conjugate of Cyclovirobuxine D): no significantly effect; also recorded: no significant effect
cardioverter (X ± S) [1, 2]: 150 ± 96.44
rising of T wave (X ± S) [1, 2]: 0.25 ± 0.062
cardioverter (X ± S) [1, 3]: 180 ± 60.00
rising of T wave (X ± S) [1, 3]: 0.22 ± 0.102
cardioverter (X ± S) [1, 4]: 200 ± 56.57
rising of T wave (X ± S) [1, 4]: 0.28 ± 0.071
cardioverter (X ± S) [1, 5]: 240 ± 69.28
rising of T wave (X ± S) [1, 5]: 0.33 ± 0.056
cardioverter (X ± S) [1, 6]: 260 ± 44.72
rising of T wave (X ± S) [1, 6]: 0.35 ± 0.067
cardioverter (X ± S) [1, 7]: 260 ± 44.72
rising of T wave (X ± S) [1, 7]: 0.32 ± 0.052
cardioverter (X ± S) [1, 8]: 300 ± 91.65
rising of T wave (X ± S) [1, 8]: 0.33 ± 0.069
cardioverter (X ± S) [1, 9]: 270 ± 145.94
rising of T wave (X ± S) [1, 9]: 0.24 ± 0.059
cardioverter (X ± S) [1, 10]: 200 ± 128.06
rising of T wave (X ± S) [1, 10]: 0.17 ± 0.123
cardioverter (X ± S) ([1]; low dose 0.25 mg/kg iv, time 0): 420 ± 60.00
rising of T wave (X ± S) ([1]; low dose 0.25 mg/kg iv, time 0): 0.25 ± 0.064
inhibition of the rising of T wave by pituitrin-induced, in words ([1]; low dose groups, 0.25 mg/kg, vs control groups P<0.01): could inhibit
cardioverter (X ± S) [1, 11]: 180 ± 60.00
rising of T wave (X ± S) [1, 11]: 0.28 ± 0.049
cardioverter (X ± S) [1, 12]: 200 ± 56.57
rising of T wave (X ± S) [1, 12]: 0.27 ± 0.029
cardioverter (X ± S) [1, 13]: 240 ± 0.00
rising of T wave (X ± S) [1, 13]: 0.28 ± 0.029
cardioverter (X ± S) [1, 14]: 260 ± 44.72
rising of T wave (X ± S) [1, 14]: 0.31 ± 0.059
cardioverter (X ± S) [1, 15]: 280 ± 56.57
rising of T wave (X ± S) [1, 15]: 0.31 ± 0.059
cardioverter (X ± S) [1, 16]: 280 ± 56.57
rising of T wave (X ± S) [1, 16]: 0.30 ± 0.065
cardioverter (X ± S) [1, 17]: 280 ± 56.57
rising of T wave (X ± S) [1, 17]: 0.33 ± 0.072
cardioverter (X ± S) [1, 18]: 340 ± 44.72
rising of T wave (X ± S) [1, 18]: 0.33 ± 0.123
cardioverter (X ± S) [1, 19]: 260 ± 107.70
rising of T wave (X ± S) [1, 19]: 0.22 ± 0.107
cardioverter (X ± S) [1, 20]: 420 ± 60.00
rising of T wave (X ± S) [1, 20]: 0.23 ± 0.046

CN[C@@H](C)[C@H]1[C@H](O)C[C@@]2(C)[C@@H]3CC[C@H]4C(C)(C)[C@@H](NC)CC[C@@]45C[C@@]35CC[C@]12C [native Cyclovirobuxine D, Cyclovirobuxine D]
LD50 in IP injection (Kunming strain mice; Kunming mice, single IP injection, 14 days observation): 97.52 mg/kg
LD50 in IV injection (Kunming strain mice; Kunming mice, single IV injection, 14 days observation): 11.77 mg/kg
effect on the cardioverter, in words [1]: no significantly effect
effect on the cardioverter, in words ([1]; listed as Native Cyclovirobuxine D): no significant effect
cardioverter (X ± S) [1, 2]: 228.3 ± 44.41
rising of T wave (X ± S) [1, 2]: 0.22 ± 0.08
cardioverter (X ± S) [1, 3]: 250.3 ± 29.14
rising of T wave (X ± S) [1, 3]: 0.18 ± 0.065
cardioverter (X ± S) [1, 4]: 267.6 ± 44.71
rising of T wave (X ± S) [1, 4]: 0.21 ± 0.072
cardioverter (X ± S) [1, 5]: 266.4 ± 30.09
rising of T wave (X ± S) [1, 5]: 0.22 ± 0.081
cardioverter (X ± S) [1, 6]: 270.6 ± 30.52
rising of T wave (X ± S) [1, 6]: 0.21 ± 0.076
cardioverter (X ± S) [1, 7]: 289.8 ± 43.91
rising of T wave (X ± S) [1, 7]: 0.23 ± 0.075
cardioverter (X ± S) [1, 8]: 315.0 ± 63.39
rising of T wave (X ± S) [1, 8]: 0.24 ± 0.081
cardioverter (X ± S) [1, 9]: 351.6 ± 90.78
rising of T wave (X ± S) [1, 9]: 0.50 ± 0.092
cardioverter (X ± S) [1, 10]: 202.9 ± 42.85
rising of T wave (X ± S) [1, 10]: 0.23 ± 0.061
cardioverter (X ± S) ([1]; low dose 0.25 mg/kg iv, time 0): 392.4 ± 48.11
rising of T wave (X ± S) ([1]; low dose 0.25 mg/kg iv, time 0): 0.20 ± 0.040
cardioverter (X ± S) [1, 11]: 196.2 ± 52.90
rising of T wave (X ± S) [1, 11]: 0.23 ± 0.068
cardioverter (X ± S) [1, 12]: 215.4 ± 45.47
rising of T wave (X ± S) [1, 12]: 0.23 ± 0.051
cardioverter (X ± S) [1, 13]: 236.7 ± 47.92
rising of T wave (X ± S) [1, 13]: 0.23 ± 0.047
cardioverter (X ± S) [1, 14]: 256.6 ± 51.26
rising of T wave (X ± S) [1, 14]: 0.24 ± 0.040
cardioverter (X ± S) [1, 15]: 268.6 ± 53.15
rising of T wave (X ± S) [1, 15]: 0.25 ± 0.048
cardioverter (X ± S) [1, 16]: 260.8 ± 93.87
rising of T wave (X ± S) [1, 16]: 0.27 ± 0.044
cardioverter (X ± S) [1, 17]: 297.6 ± 41.30
rising of T wave (X ± S) [1, 17]: 0.26 ± 0.040
cardioverter (X ± S) [1, 18]: 331.1 ± 41.18
rising of T wave (X ± S) [1, 18]: 0.34 ± 0.119
cardioverter (X ± S) [1, 19]: 234.5 ± 85.06
rising of T wave (X ± S) [1, 19]: 0.19 ± 0.116
cardioverter (X ± S) [1, 20]: 389.6 ± 46.56
rising of T wave (X ± S) [1, 20]: 0.21 ± 0.052
inhibition of the rising of T wave by pituitrin-induced, in words ([1]; middle dose groups, 0.5 mg/kg, vs control group P<0.01): could inhibit
